What all share (type): in vivo, rat
The subject of one assay is total NO. Nature of the assay: total NO in serum of SHRs. The settings on record: oral 14 days, dose-dependent. An excerpt: (§1) All three MDAs (BAC, BMC, and BHC) were purchased from Nature-Standard Co., Ltd. (Shanghai, China) and their purities were all over 98%. The anti-hypertensive effects of MDAs were studied in both acute and chronic experiments. The 16-week-old SHRs were used in animal experiments, and each group had six rats. In the acute experiment, drug administration was via i.v. injection. For i.v. injection, the animals were randomly assigned into four groups: vehicle (0.1% DMSO–0.9% salt solution, n = 6), low-dose group (0.6 mg kg^−1 body weight, n = 6), medium-dose group (2 mg kg^−1 body weight, n = 6), and high-dose group (6 mg kg^−1 body weight, n = 6). The drug was administered using a venous catheter. […] Blood pressure was recorded in real time.
Total NO levels in serum obtained from SHRs treated with vehicle, BAC, or captopril for 14 days were quantified by using total nitric oxide assay kit (Beyotime, Shanghai, China) as described previously. The absorbance was measured using a microplate reader (Thermo Fisher Scientific) at 540 nm and calculated according to the standard curve. […]

Another assay deals with Ang II. Nature of the assay: serum Ang II by ELISA in SHRs after 14-day oral administration. The settings on record: oral 14 days.
From the text: as §1
(§2) Blood samples were collected from the left femoral artery of rats at the end point, followed by centrifugation at 1,000 × g for 15 min at 4°C. […] The concentrations of circulating ACE, ACE2, Ang I, Ang II, Ang (1–7), TNF-α, and IL-6 in serum were measured using the ELISA kits [ACE, cat#xy-R2401c, X-Y Biotechnology, Shanghai, China; ACE2, cat#xy-ACE2-Ra, X-Y Biotechnology; Ang I, cat#xy-E12541, X-Y Biotechnology; Ang II, cat#xy-R1430c, X-Y Biotechnology; Ang (1–7), cat#xy-Ang1-7-Ra, X-Y Biotechnology; TNF-α, cat#GM1149, Servicebio, Shanghai, China; IL-6, cat#GM1154, Servicebio] according to the manufacturer’s instructions. […]
Background: In an ELISA, binding on a coated surface is turned into a signal by an enzyme label.

The next assay relates to TNF-α. Nature of the assay: serum TNF-α by ELISA in SHRs. The settings on record: oral 14 days.
From the text: as §1, §2

For assay [1], the system named is spontaneously hypertension rats (SHRs). Nature of the assay: chronic experiment: blood pressure, heart rate and aorta histology after 14-day oral administration in SHRs. The settings on record: for DBP: 14 days (SHRs 130 ± 5); for MAP: 14 days (SHRs 151 ± 5); for SBP: 14 days (SHRs 172 ± 6). The procedure: The SHRs were surgically implanted with a catheter via the left femoral artery, vein, and stomach after anesthetizing with 2% pentobarbital sodium (40 mg kg^−1 i.p.,). A pressure sensor was inserted into the terminal of the arterial catheter and connected to a PowerLab system (ADInstruments, New South Wales, Australia) for real-time blood pressure monitoring.
All three MDAs (BAC, BMC, and BHC) were purchased from Nature-Standard Co., Ltd. (Shanghai, China) and their purities were all over 98%. The anti-hypertensive effects of MDAs were studied in both acute and chronic experiments. The 16-week-old SHRs were used in animal experiments, and each group had six rats. In the acute experiment, drug administration was via i.v. injection. For i.v. injection, the animals were randomly assigned into four groups: vehicle (0.1% DMSO–0.9% salt solution, n = 6), low-dose group (0.6 mg kg^−1 body weight, n = 6), medium-dose group (2 mg kg^−1 body weight, n = 6), and high-dose group (6 mg kg^−1 body weight, n = 6). The drug was administered using a venous catheter. In chronic experiments, the animals were randomly assigned into five groups: vehicle (5% Tween 80–0.9% salt solution, n = 6), captopril group (5 mg kg^−1 body weight, n = 6), low-dose group (3 mg kg^−1 body weight, n = 6), medium-dose group (10 mg kg^−1 body weight, n = 6), and high-dose group (30 mg kg^−1 body weight, n = 6). Oral administration with drug or 5% Tween 80–0.9% salt solution was carried out once a day, and continued for 14 days. The drugs were dissolved in 0.1% DMSO–0.9% salt solution for intravenous injection and in 5% Tween 80–0.9% salt solution for oral administration. Blood pressure was recorded in real time.
Real-time blood pressure level was monitored after drug treatment in the acute and chronic experiments. All animals were surgically implanted with a catheter in the left femoral artery. After connection to the monitor, all animals were placed at room temperature of 25°C for 0.5–1 h and the average blood pressure value was calculated based on a real-time blood pressure curve (10 s of every 30 s).
After euthanizing the rats with sodium pentobarbital (100 mg kg^−1, i.p.) administration in combination with isoflurane inhalation, the aortas were harvested directly according to a previously described method. The aortas were fixed in 4% paraformaldehyde for 24 h and embedded in paraffin. The cross-sections (5 μm) were stained with hematoxylin and eosin or subjected to immunostaining. Immunofluorescence staining for ACE and ACE2 was performed according to the manufacturer’s instructions (Servicebio, Wuhan, China).

Regarding `CCN1CC2(COC)C(O)CC(OC)C34C5CC6(O)C(OC)C(O)C(O)(C5C6OC(=O)c5ccccc5)C(C(OC)C23)C14` (stereo not drawn) [BAC, Benzoylaconitine], the “total NO level in serum” value in the assay on total NO is listed as “increase NO level”. In addition, the “level of Ang II in blood” value in the assay on Ang II is recorded as “decreased”. The “level of TNF-α in serum” value with TNF-α is listed as “reduced”. The “blood pressure versus vehicle group” value in assay [1] (oral 3 mg kg^−1 once a day, 14 days) was “did not significantly differ”. For the same compound, in assay [1] (oral 10 mg kg^−1 once a day), the DBP was 119 ± 8 mmHg, the MAP is 136 ± 7 mmHg and the SBP was found to be 154 ± 6 mmHg. Also, the heart rate entry in assay [1] (oral 30 mg kg^−1 once a day, 14 days) was “reduce the heart rate”. For the same compound, in assay [1] (oral 30 mg kg^−1 once a day), the DBP worked out at 101 ± 7 mmHg, the MAP is 121 ± 6 mmHg and the SBP was 139 ± 6 mmHg. For the same compound, in assay [1] (oral administration, 14 days), the “vascular smooth muscle thickness (hematoxylin and eosin stain of aorta)” value is given as “reverse smooth muscle remodeling”.

Source of the values: article PMC8963105, “A Novel Modulator of the Renin–Angiotensin System, Benzoylaconitine, Attenuates Hypertension by Targeting ACE/ACE2 in Enhancing Vasodilation and Alleviating Vascular Inflammation” (Frontiers in Pharmacology, 2022).
